Experimental findings from patent US20150087723A1, “MICROBIAL COMPOSITION” (Rohm and Haas Company, priority 2011, published 2015) are described below.

A value given as a limit tells only on which side of the number the result lay.

Common to all, as to assay type: cell-based
Test [1] has as its system Escherichia coli (E. coli—ATCC #10536). Description: Automated assessment of efficacy in model surfactant base (2.85% sodium cocoyl glycinate + 1.85% sodium lauroamphoacetate, pH 10), 15 seconds exposure, OD450/OD590 readout. Conditions: for No. of replicates showing growth (out of 4) / Δ OD 450 nm = OD450 (time = 16 hours) - OD450 (time zero), Mean / Δ OD 590 nm OD590 (time = 16 hours) - OD590 (time zero), Mean: model surfactant solution. The protocol: Solutions were prepared such that the concentrations of the surfactant components and test actives were 1.1×x the final desired concentration in order to allow for dilution with the bacterial inoculum in the test. The solutions were manually adjusted to pH 10.0 by drop wise addition of sodium hydroxide solution, as measured with a phi meter at ambient temperature.
Tests were conducted using standard microtiter plate assays using an automated liquid handling system, 270 μl of the surfactant test solution was pipetted into each well of the microtitre plate and 30 μl of the bacterial suspension was then added. After exactly 15 seconds of bacterial exposure, a 30 μl volume of bacterial cells was withdrawn and transferred to 270 μl of D/E quench solution. After 5 minutes in the D/E quench, the optical density (OD) was measured for each plate in turn at two specific wavelengths (450 nm and 590 nm). These provide a dual check of antimicrobial activity, as the OD450 reading is specific for the yellow colour of D/E quench when bacterial growth is observed, whereas OD590 is specific for the initial purple colour of the D/E quench which is retained if no bacterial growth is observed. After the time zero OD measurements, plates were then incubated at 37° C. overnight (16 hours) before repeating the OD measurements. Delta OD values were calculated by subtracting […] the initial value at time zero. Bacterial growth is observed as an increase in OD450 and a decrease in ΔOD590. To identify antibacterially efficacious systems (those preventing appreciable bacterial growth after incubation), the following threshold changes in OD readings have been adopted: if (1), OD450 increases by less than 0.2 absorbance unit on incubation and (2). OD590 decreases by less than 0.35 unit on incubation. Conversely, where OD450 increases by more than 0.2 AU and OD590 decreases by more than 0.35 unit after incubation, corresponding to a colour shift from purple to yellow, the test system allows bacterial growth and is not deemed efficacious. Four replicate measurements in the same plate have been made for each test system. The number of replicate wells showing either bacterial growth or no growth is also readily assessed by eye by following the colour change.
Dose responses for individual components and binary mixtures of actives at a used concentration ratio were generated by sequential dilution of liquors with further surfactant solution to obtain a series of endpoints.
In some selected cases, the combinations were also tested at the weight ratio 1:1.

In test [2] the test system is Escherichia coli (10536 strain). Nature of the test: Antimicrobial efficacy in water, 15 seconds contact, mean bacterial survival NMBS by colony count. Conditions: component alone at 0.1% w/v. On the procedure:
An overnight culture of Escherichia coli (10536 strain) was prepared in 50 ml total volume of TSB broth, grown for ca. 18 hrs at 37° C. and shaken at 150 rpm. 1 ml of this overnight E. coli culture was transferred to 50 ml of fresh TSB broth and incubated at 37° C. at 150 rpm for ca. 4 hours. […] This bacterial stock was used for assaying against antimicrobial actives (in triplicate).
The following assay describes the testing of 8 materials using 6 dilutions across half of a 96-well micro litre plate (MTP). Using this approach it is possible to assay 16 actives (without replicates) with, one full dilution plate, replicating this set up in two halves of the plate columns, 1-6 and 7-12.
IM solutions of the test actives were prepared in dimethylsulphoxide (DMSO).
Aliquots (270 μl) of the materials at 1.11 times the final concentration were dispensed into the wells of the MTP along one column (A1-H1). This MTP was labeled as the “Screening plate”.
In another MTP, labeled as the “Dilution plate”, 270 μl of D/E neutralising solution from DIFCO Composition was added to column 1. The composition of the neutralising solution was as follows: pancreatic digest of casein, 5.0 g/L; Yeast Extract, 2.5 g/L; Dextrose, 10 g/L, sodium thioglycollate, 1.0 g/L, sodium thiosulphate, 6.0 g/L; sodium bisulphite, 2.5 g/L; Polysorbate 80, 5.0 g/L; lecithin 7.0 g/L; bromocresol purple, 0.02 g/L with a pH is the range 7.6±0.2.
270 μl of tryptone diluent solution was added to all the remaining wells of the Dilution MTP (columns 2-6).
Bacterial stock (30 μl) was then added to the prepared 270 μl of the solution of actives in the Screening Plate and mixed, using a multichannel pipette with 8 tips to aspirate and dispense the same volume of bacterial stock in parallel to 8 wells in rows A-H. After a contact time of 15 seconds, the mixtures were quenched by transferring 30 μl volumes of the mixtures into the 270 μl D/E neutralising solution in the prepared dilution plate, using aspiration to mix. After exactly 5 minutes in the D/E neutralising solution, 30 μl volumes were transferred from column 1 to column 2 of the Dilution MTP and mixed, before transferring further 30 μl volumes from column 2 into column 3. This process was repeated serially diluting the bacteria across the plate to column 6.
30 μl volumes from each well in the Dilution MTP were transferred onto pre-labeled segment of Tryptone Soya Agar (TSA) plates starting from the lowest bacterial concentration (highest dilution, column 6) to the highest bacterial concentration (column 1). The TSA plates were allowed to stand for ca. 2 hours so that the 30 μl inocula spots could dry and the plates were then inverted and incubated overnight at 37° C. before enumerating the bacterial colonies at the labeled dilutions to determine the effects of the actives on bacterial growth.
Mean bacterial survival numbers NMBS (expressed in Log CFU/ml) are obtained by first determining the segment of the TSA plate where the number of bacterial colonies is countable. From the colony number in this segment, NMBS is calculated by the formula: […]
Here, Ncol is the colony count, and DF is the dilution factor taken from the MTP-well corresponding to the TSA plate segment (i.e. DF may range from 1 for the quench, to 6 for the highest dilution).

The subject of test [3] is Escherichia coli (E. coli—ATCC #10536). Description: Synergy test: high resolution MBC microtiter plate assay, phosphate buffer containing 35% dipropylene glycol, 15 seconds contact. Conditions: E. coli 10536. The text has this: One measure of synergy is -the industrially accepted method described by Kull, F. C.; Eisman, P. C.; Sylwestrowicz, H. D. and Mayer, R. L., in Applied Microbiology 9:538-541 (1961), using the ratio determined by the formula:
Qa/QA+Qb/QB=Synergy Index (“SI”)
wherein: QA=concentration of compound A (first component) in percent, acting alone, which produced an end point (MBC of Compound A). Qa =concentration of compound A in percent, in the mixture, which produced an end point. QB=concentration of compound B (second component) in percent, acting alone, which produced an end point (MBC of Compound B). Qb=concentration of compound B in percent, in the mixture, which produced an end point.
When the sum of Qa/QA and Qb/QB is greater than one, antagonism is indicated. […] The lower the SI, the greater is the synergy shown by that particular mixture. The minimum biocidal concentration (MBC) of a microbicide is the lowest concentration tested under a specific set of conditions that provides complete kill of the tested microorganisms.
Synergy tests were-conducted using standard microtiter plate assays with, phosphate buffer containing 35% dipropylene glycol (DPG). In this method, a wide range of combinations of chemicals was tested by conducting high resolution MBC assays of Component (A) in the presence of various concentrations of Component (B). High resolution MBCs were determined by adding varying amounts of microbicide to one column of a microtiter plate and doing subsequent ten-fold dilutions using an automated liquid handling system to obtain a series of closely spaced endpoints. The MBC plate was inoculated one column at a time with the test microorganism. An aliquot of the inoculated well was transferred at 15 seconds to a plate containing a neutralizing agent (D/E Neutralizing Broth), mixed and held for 5 minutes before being transferred to a growth plate containing trypticase soy broth (TSB). The TSB plate was incubated at 37° C. and read for the presence/absence of growth at 24 hours. The lowest level tested that provided complete kill (as evidenced by no growth in the microtitre plate) of the test organisms in 15 seconds is the minimum biocidal concentration (MBC).
The synergy of the combinations of the present invention was determined against a bacterium, Escherichia coli (E. coli—ATCC #10536), at a concentration of approximately 1×10^8 bacteria per mL. This microorganism is representative of natural contaminants in many consumer and industrial applications.

Test [4] has as its system Staphylococcus aureus (10788 strain). Nature of the test: Antimicrobial efficacy in water, 15 seconds contact, mean bacterial survival NMBS by colony count. Conditions: component alone at 0.1% w/v.

As for `C=CC(C)(O)CCC=C(C)C` (racemic) [3,7-dimethylocta-1,6-dien-3-ol], in test [1] (Escherichia coli, ATCC10536, 15 s, in 2.85% sodium cocoyl glycinate + 1.85% sodium lauroamphoacetate solution at pH 10, E. coli, read-out: MBC (% w/v)), the MBC is above 5000 µg/mL. In test [1] (component alone at 0.2% w/v), the “No. of replicates showing growth (out of 4)” value is on record as 4 out of 4; the “Δ OD 450 nm = OD450 (time = 16 hours) - OD450 (time zero), Mean” value is −0.53; the “Δ OD 590 nm OD590 (time = 16 hours) - OD590 (time zero), Mean” value is recorded as 0.60. Moreover, in test [1] (component alone at 0.5% w/v), the “No. of replicates showing growth (out of 4)” value was 3 out of 4; the “Δ OD 450 nm = OD450 (time = 16 hours) - OD450 (time zero), Mean” value is listed as −0.30; the “Δ OD 590 nm OD590 (time = 16 hours) - OD590 (time zero), Mean” value is 0.50. The “No. of replicates showing growth (out of 4)” value in test [1] (component alone at […] w/v) is listed as 4 out of 4. For the same compound, the “Log reduction E. coli ATCC 10536” value in test [2] amounted to 0.06. Besides, in test [3] (at Qa and Qb, <1 synergy, 1 additivity, >1 antagonism), the “SI (Synergy Index = Qa/QA + Qb/QB)” value worked out at 1.00. Also, in test [3] (component alone (Qa = 0), complete kill in 15 seconds), the “Qb: MBC of the second component (B) acting alone (QB)” value is given as 0.5 weight %. Also, the “Log reduction S. aureus ATCC 6538” value in test [4] was −0.13.
